From ChEMBL document CHEMBL1201862, “PubChem BioAssay data set” (2004)
The source made the active and inactive calls.

Columns and labels:
[1] = control 3'UTR Renilla luciferase suppression, dose response, counter-screen for Shn3 inhibitor project, cell-based, Clone20-Shn3RL, cherry-picked (AID 624133); type: functional
[2] = HepG2 cell cytotoxicity, dose response, cytotoxicity control for Shn3 inhibitor project, CellTiter-Glo, cherry-picked (AID 624134); type: functional, cell-based
[3] = target: RNA-editing ligase 1, mitochondrial (Trypanosoma brucei brucei, UniProt P86926); test: TbREL1 ligase inhibitors, dose response, biochemical, fluorescence, Trypanosoma brucei (AID 1117295); type: functional
Chain of RNA-editing ligase 1, mitochondrial (P86926 whole entry): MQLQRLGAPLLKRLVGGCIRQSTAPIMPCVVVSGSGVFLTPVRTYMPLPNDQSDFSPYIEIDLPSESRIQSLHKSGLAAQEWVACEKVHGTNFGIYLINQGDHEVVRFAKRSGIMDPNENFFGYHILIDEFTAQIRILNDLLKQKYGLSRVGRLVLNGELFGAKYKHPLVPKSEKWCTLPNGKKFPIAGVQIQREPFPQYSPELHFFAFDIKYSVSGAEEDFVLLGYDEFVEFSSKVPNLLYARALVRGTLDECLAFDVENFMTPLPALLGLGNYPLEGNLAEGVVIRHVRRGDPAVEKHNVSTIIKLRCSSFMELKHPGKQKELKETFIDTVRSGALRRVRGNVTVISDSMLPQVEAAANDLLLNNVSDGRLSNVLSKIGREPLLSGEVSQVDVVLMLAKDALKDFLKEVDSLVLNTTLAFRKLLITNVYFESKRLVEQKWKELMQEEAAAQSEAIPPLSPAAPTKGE

[4] = tested on: INS1; test: beta cell apoptosis inhibitors, cytokine rescue, dose response, luminescence, retest (AID 449756); type: functional, cell-based; conditions: Rattus norvegicus;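 note: cell death triggered by IL-1 beta plus TNF-alpha plus IFN-gamma mixture; protective hits raise ATP signal compared with cytokine alone wells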
[5] = Shn3 3'UTR reporter inhibitors, dose response, cell-based, Clone20 osteoblasts, firefly luciferase, cherry-picked (AID 624132); type: functional;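 note: firefly luciferase luminescence from reporter carrying the Shn3 3'UTR in osteoblasts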
[6] = Luminescence Cell-Based Dose Retest to Confirm Inhibitors of Cancer Stem Cells. [Related pubchem assays (depositor defined):AID2717, AID2721]; type: functional; conditions: Homo sapiens
[7] = target: Protein Tat (Human immunodeficiency virus type 1 group M subtype B (isolate HXB2)(HIV-1), UniProt P04608); type: functional;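 note: tat binding to TAR RNA read out by fluorescence polarization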
Chain of Protein Tat (P04608 whole entry): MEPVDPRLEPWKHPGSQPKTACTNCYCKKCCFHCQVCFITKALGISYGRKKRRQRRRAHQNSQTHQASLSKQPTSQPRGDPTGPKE

[8] = target: Nonstructural protein 1 (Influenza A virus, UniProt Q194T2); type: functional, Influenza A virus (A/California/07/2009(H1N1))
Chain of Nonstructural protein 1 (Q194T2 whole entry, the tested form may be a part): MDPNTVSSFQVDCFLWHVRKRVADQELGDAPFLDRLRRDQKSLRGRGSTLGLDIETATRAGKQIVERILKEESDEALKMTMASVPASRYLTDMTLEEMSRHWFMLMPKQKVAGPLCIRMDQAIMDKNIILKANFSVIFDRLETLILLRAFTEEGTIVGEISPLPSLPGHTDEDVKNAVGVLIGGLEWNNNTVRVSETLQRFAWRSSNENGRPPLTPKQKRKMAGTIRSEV

[9] = target: T1, Oxysterols receptor LXR-beta (Homo sapiens, UniProt P55055); type: functional, cell-based;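 note: Cell-based luminescence dose-response assay of agonist activity at LXR, run as a confirmatory counterscreen to a daf-12 agonist screen; HEK293 cells with Gal4-LXR fusion and GAL4-driven luciferase reporter; agonist potency from rising luciferase signal of a Gal4-LXR reporter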
T1 sequence (P55055 whole entry): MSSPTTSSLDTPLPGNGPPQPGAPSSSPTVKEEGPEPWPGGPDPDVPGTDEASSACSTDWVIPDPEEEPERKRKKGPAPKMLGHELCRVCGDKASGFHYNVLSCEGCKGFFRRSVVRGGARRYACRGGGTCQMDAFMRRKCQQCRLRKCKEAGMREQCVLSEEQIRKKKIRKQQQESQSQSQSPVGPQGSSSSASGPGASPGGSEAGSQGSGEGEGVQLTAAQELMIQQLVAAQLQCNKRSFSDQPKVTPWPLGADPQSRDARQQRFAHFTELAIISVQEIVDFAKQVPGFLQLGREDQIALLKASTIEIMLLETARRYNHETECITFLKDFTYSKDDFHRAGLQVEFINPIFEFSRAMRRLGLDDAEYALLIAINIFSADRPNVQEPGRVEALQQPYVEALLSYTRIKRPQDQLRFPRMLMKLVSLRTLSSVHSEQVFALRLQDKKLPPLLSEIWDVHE

[10] = cells
[11] = target: Kallikrein-7 (Homo sapiens, UniProt P49862); test: Fluorescence Intensity-based biochemical primary high throughput dose response assay to identify activators of kallikrein-7 (K7) zymogen.
Chain of Kallikrein-7 (P49862 whole entry): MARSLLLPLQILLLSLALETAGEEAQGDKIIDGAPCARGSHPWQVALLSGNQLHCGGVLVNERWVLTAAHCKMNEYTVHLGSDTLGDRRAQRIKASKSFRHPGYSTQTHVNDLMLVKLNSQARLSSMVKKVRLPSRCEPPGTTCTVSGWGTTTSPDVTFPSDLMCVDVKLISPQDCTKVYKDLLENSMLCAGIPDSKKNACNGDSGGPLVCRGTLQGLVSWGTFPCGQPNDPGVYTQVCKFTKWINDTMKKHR

[12] = target: Intestinal-type alkaline phosphatase (Mus musculus, UniProt P24822); test: PubChem AID 488785; type: functional
Chain of Intestinal-type alkaline phosphatase (Mus musculus, UniProt P24822) (P24822 whole entry): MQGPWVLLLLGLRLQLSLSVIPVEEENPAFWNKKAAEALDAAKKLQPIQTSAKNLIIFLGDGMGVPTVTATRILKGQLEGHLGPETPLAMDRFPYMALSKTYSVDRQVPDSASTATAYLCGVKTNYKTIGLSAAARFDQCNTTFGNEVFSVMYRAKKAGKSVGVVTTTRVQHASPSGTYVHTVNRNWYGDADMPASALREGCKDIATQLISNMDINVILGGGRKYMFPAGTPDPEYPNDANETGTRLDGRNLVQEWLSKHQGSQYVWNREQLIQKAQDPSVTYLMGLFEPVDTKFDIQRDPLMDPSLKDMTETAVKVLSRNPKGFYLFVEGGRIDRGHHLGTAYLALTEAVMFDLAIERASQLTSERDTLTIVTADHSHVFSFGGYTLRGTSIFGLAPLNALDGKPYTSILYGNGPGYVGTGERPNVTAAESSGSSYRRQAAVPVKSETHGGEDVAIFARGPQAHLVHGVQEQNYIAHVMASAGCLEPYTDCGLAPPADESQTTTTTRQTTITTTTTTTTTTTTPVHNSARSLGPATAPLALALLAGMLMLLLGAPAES

[13] = target: 1-phosphatidylinositol 4,5-bisphosphate phosphodiesterase gamma-1 (Homo sapiens, UniProt P19174); test: Counterscreen for inhibitors of phospholipase C isozymes (PLC-B3): Fluorescence-based biochemical high throughput dose response assay to identify inhibitors of phospholipase C isozymes (PLC-gamma1).
Chain of 1-phosphatidylinositol 4,5-bisphosphate phosphodiesterase gamma-1 (P19174 whole entry): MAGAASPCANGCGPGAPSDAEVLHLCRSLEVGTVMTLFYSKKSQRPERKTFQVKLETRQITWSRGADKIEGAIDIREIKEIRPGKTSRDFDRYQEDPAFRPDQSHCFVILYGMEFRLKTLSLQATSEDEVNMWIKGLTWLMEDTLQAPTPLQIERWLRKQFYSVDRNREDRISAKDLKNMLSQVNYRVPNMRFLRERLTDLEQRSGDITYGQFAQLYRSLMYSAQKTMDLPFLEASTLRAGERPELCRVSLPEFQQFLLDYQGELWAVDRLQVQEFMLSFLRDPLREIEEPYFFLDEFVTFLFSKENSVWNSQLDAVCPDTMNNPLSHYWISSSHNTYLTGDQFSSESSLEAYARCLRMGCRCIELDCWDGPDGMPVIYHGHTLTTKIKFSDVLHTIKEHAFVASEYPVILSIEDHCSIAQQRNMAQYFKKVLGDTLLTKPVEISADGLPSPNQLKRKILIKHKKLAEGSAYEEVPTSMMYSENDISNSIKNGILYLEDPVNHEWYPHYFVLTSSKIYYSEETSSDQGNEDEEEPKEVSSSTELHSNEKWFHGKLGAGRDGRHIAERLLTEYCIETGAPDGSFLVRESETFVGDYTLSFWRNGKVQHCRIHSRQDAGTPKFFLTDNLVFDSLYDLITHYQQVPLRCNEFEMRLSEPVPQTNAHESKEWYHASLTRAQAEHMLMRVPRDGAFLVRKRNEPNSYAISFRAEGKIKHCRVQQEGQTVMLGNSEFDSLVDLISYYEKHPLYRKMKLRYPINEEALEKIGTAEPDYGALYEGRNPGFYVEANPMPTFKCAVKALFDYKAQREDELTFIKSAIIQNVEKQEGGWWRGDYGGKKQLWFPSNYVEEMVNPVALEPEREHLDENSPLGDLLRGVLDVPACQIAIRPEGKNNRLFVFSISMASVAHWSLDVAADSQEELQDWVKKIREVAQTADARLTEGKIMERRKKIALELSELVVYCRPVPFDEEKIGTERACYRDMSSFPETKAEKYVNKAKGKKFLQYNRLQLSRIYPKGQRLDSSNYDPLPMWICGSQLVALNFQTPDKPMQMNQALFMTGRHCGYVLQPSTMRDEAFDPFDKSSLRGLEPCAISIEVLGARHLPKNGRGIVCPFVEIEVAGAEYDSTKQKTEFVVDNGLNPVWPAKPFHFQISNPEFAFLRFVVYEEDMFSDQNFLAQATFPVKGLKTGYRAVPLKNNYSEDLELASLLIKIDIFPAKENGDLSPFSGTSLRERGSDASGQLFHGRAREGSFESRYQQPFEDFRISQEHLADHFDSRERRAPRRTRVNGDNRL

[14] = target: 1-phosphatidylinositol 4,5-bisphosphate phosphodiesterase beta-3 (Homo sapiens, UniProt Q01970); test: Fluorescence-based biochemical high throughput dose response assay to identify inhibitors of phospholipase C isozymes (PLC-B3).
Chain of 1-phosphatidylinositol 4,5-bisphosphate phosphodiesterase beta-3 (Q01970 whole entry): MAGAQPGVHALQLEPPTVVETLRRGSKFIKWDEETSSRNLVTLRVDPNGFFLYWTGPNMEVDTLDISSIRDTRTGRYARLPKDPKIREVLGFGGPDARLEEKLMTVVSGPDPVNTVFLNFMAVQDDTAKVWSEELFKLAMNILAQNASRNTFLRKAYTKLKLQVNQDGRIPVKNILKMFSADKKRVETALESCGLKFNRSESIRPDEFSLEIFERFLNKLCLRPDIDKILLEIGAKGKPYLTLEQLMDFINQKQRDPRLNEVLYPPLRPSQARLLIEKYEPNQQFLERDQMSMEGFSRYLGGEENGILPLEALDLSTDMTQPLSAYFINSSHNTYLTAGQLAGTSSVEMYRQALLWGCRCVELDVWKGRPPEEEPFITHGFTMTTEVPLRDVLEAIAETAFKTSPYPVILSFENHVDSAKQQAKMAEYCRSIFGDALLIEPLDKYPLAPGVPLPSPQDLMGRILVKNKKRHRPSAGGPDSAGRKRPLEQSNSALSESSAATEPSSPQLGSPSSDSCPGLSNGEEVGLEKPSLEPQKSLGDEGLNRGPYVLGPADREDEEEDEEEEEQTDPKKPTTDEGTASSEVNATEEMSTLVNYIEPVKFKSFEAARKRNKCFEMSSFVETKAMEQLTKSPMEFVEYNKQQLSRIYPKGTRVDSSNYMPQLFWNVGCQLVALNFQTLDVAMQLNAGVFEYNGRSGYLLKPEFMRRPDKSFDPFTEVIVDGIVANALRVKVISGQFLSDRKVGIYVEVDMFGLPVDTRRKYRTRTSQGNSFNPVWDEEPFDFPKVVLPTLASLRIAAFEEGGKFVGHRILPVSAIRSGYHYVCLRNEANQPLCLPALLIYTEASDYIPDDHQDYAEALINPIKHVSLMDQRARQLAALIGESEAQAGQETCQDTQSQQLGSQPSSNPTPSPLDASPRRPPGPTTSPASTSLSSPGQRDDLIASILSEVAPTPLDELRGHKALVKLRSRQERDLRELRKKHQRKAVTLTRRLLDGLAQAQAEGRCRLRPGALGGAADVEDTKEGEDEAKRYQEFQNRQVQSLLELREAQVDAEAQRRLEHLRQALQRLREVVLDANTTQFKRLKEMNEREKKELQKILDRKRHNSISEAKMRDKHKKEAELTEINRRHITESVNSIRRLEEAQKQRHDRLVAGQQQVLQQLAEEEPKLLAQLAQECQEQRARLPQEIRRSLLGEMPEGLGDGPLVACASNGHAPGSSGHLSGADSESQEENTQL

[15] = target: Intestinal-type alkaline phosphatase (Homo sapiens, UniProt P09923); test: inhibition of human intestinal alkaline phosphatase – biochemical, dose response (AID 488876); type: functional
Chain of Intestinal-type alkaline phosphatase (Homo sapiens, UniProt P09923) (P09923 whole entry): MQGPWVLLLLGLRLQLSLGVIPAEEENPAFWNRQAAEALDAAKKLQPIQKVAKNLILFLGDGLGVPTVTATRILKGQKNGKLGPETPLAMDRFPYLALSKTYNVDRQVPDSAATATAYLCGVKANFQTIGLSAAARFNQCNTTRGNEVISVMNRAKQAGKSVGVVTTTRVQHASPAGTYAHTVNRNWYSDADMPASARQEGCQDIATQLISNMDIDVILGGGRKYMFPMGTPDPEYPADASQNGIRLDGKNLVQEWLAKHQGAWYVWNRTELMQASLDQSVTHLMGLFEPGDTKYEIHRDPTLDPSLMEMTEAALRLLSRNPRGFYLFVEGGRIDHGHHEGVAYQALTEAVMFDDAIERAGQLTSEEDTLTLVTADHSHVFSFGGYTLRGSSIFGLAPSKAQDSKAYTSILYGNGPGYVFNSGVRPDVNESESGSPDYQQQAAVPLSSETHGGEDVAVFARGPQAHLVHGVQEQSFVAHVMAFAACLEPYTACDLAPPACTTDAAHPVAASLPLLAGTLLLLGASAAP

[16] = target: T2, Zinc finger protein mex-5 (Caenorhabditis elegans, UniProt Q9XUB2); test: MEX-5/TCR-2 RNA interaction inhibitors, dose response, biochemical, C. elegans, fluorescence polarization (AID 1960)
T2 sequence (Q9XUB2 whole entry): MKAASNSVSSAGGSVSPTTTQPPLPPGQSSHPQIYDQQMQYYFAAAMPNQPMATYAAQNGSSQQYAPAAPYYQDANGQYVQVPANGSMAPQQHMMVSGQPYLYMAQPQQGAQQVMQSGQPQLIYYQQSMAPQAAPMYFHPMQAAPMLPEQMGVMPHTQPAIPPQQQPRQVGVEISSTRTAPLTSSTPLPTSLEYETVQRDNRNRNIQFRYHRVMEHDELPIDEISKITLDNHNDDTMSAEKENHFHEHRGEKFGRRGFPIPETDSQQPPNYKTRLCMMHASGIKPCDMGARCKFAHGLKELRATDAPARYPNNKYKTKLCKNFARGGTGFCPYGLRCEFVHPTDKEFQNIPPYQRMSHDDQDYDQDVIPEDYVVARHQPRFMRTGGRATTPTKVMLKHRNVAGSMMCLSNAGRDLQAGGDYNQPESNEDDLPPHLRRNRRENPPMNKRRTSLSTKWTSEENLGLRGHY

[17] = target: T3, Histone-lysine N-methyltransferase NSD2 (Homo sapiens, UniProt O96028); type: biochemical
T3 sequence (O96028 whole entry): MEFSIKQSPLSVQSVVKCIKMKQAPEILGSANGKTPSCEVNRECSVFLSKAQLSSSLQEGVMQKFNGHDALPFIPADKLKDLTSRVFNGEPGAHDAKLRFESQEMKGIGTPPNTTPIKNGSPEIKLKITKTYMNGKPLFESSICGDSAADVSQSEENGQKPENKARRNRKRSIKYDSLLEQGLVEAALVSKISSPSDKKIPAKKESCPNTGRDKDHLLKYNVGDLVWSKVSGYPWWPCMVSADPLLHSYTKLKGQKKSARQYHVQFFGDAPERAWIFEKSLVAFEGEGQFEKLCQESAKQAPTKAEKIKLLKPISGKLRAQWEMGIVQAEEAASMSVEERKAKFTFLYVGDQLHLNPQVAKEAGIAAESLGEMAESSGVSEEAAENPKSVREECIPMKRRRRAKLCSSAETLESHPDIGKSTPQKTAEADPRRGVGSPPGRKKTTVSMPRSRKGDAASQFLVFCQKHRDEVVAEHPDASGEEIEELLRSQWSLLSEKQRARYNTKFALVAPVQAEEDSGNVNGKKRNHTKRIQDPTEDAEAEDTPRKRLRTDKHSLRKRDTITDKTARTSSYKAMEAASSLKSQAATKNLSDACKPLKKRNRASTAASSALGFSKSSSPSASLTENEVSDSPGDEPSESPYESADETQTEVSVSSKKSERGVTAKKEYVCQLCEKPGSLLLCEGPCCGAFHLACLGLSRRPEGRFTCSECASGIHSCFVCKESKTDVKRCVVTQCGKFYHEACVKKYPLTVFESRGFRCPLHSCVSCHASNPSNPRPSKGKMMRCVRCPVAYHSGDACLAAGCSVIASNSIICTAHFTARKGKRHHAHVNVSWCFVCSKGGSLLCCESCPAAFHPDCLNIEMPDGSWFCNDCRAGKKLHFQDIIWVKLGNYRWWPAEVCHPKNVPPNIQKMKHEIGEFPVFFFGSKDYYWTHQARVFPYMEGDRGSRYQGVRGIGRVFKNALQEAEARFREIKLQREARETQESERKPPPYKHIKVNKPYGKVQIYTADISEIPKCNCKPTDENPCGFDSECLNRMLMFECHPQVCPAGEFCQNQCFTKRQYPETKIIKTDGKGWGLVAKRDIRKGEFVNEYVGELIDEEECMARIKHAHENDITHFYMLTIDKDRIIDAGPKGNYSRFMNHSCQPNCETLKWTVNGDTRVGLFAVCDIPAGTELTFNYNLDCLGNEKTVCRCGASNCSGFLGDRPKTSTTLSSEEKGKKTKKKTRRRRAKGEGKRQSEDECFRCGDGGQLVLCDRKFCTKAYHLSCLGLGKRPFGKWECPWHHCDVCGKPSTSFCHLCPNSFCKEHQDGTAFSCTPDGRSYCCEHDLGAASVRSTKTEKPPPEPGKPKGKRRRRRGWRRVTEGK

[18] = target: T4, RNA-binding protein pos-1 (Caenorhabditis elegans, UniProt G5EF15); test: inhibitors of POS-1/mex-3 RNA binding, dose response, biochemical, fluorescence polarization (AID 1964);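 note: purified POS-1 fused to maltose binding protein made in E. coli; potency of compounds blocking POS-1 binding to fluorescent RNA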
T4 sequence (G5EF15 whole entry): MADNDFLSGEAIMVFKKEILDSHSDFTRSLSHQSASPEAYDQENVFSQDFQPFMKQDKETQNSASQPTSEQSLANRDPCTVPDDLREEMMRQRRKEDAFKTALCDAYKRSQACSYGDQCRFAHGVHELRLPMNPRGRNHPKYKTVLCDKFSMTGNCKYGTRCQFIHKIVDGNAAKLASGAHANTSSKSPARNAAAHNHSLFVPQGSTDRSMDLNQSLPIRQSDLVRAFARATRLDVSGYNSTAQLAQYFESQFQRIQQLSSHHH

[19] = target: T5, Alkaline phosphatase, tissue-nonspecific isozyme (Homo sapiens, UniProt P05186); test: TNAP enzyme inhibition by screening hits, dose response, selectivity assay for mouse IAP inhibitor project, biochemical, human TNAP, uHTS hits (AID 488906); type: functional
T5 sequence (P05186 whole entry): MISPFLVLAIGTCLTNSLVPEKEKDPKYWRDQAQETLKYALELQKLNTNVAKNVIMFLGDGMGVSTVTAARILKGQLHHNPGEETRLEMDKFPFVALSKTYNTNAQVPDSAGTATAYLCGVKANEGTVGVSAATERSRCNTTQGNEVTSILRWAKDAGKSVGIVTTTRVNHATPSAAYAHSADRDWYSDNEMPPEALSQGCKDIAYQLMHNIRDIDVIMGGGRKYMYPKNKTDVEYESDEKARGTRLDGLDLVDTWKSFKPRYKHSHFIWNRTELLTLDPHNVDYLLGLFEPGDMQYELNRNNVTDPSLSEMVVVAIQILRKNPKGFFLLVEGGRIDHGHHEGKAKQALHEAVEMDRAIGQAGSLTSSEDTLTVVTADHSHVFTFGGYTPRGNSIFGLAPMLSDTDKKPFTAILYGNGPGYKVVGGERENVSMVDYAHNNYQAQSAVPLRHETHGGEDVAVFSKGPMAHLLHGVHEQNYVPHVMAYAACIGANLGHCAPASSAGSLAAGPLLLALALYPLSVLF

[20] = target: T6, Rac GTPase-activating protein 1 (Homo sapiens, UniProt Q9H0H5); test: MgcRacGAP GTPase-activating activity inhibitors, confirmation, biochemical, ADP Hunter fluorescence, primary and confirmatory (AID 624330); type: functional
T6 sequence (Q9H0H5 whole entry): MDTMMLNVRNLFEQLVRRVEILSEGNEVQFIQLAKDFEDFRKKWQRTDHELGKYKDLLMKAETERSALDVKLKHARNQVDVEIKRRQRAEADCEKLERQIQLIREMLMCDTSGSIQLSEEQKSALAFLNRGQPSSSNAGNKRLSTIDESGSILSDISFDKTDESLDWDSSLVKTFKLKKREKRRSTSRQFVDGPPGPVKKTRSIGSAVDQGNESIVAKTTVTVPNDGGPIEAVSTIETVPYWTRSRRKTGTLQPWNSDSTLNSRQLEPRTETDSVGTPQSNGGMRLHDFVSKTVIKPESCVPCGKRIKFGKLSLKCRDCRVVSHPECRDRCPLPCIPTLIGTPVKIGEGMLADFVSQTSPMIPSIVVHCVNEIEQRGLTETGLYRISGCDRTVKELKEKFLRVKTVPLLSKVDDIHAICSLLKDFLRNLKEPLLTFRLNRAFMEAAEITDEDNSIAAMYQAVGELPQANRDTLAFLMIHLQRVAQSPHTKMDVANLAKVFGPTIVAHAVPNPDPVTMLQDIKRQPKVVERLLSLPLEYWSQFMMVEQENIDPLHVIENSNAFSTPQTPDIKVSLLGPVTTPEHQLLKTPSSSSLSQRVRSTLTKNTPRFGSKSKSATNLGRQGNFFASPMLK

[21] = A375 melanoma cell viability loss, dose response, counter-screen for MITF inhibitor project, CellTiter-Glo luminescence, dry powder, set 4 (AID 624364); type: functional, cell-based; conditions: A-375;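 note: A375 melanoma cells are MITF independent so this is a counter screen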
[22] = A375 melanoma cell cytotoxicity, dose response, counter-screen for MITF inhibitor project, CellTiter-Glo luminescence, dry powder, set 2 (AID 624489); type: functional, cell-based; conditions: A-375;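 note: actives are compounds lowering A375 viability meaning general cytotoxicity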

In the case of `COc1ccc(C(CCNCc2ccc(OC(C)C)cc2)c2ccccc2OC)cc1` (configuration not stated), the AC50 [1] is reported as 4.38 µM (active), the AC50 [2] is reported as 15.3 µM (active) and the IC50 [3] is reported as > 96.6 µM (inactive). The AC50 [4] was 7.21 µM (active), the AC50 [5] was 6.44 µM (active) and the AC50 [6] was 5.99 µM (active).
For `Oc1ccccc1C=Nc1ccc(F)c2c(O)[nH]nc12`, the IC50 [7] was 3.3 µM (inconclusive) and the IC50 [8] was 41.6 µM (active).
In the case of `CC(=O)Nc1ccc(NC(=O)CSCc2cnn(-c3ccccc3)c2-n2cccc2)cc1`, the IC50 [7] is reported as > 100 µM (active).
With `Cc1cc(/C=C2\SC(=S)N=C2O)c(C)n1-c1ccccc1` the EC50 [9] was > 67.6 µM (inactive).
With `Cc1cc(/C=C2\SC(=S)NC2=O)c(C)n1-c1ccccc1` the EC50 [10] was > 67.6 µM (inactive).
In the case of `CCc1ccccc1NC(=O)CSc1nc2nnc(C)c-2c(N)n1-c1ccc(OC)cc1`, the EC50 [11] is reported as 4.1 µM (active).
In the case of `O=C(Nc1ncc2c(n1)-c1ccccc1OC2)c1ccc(F)cc1`, the EC50 [11] is reported as > 69.5 µM (inactive).
In the case of `O=C(/C=C/c1ccco1)NC(=S)Nc1ccc(C(=O)O)cc1`, the IC50 [12] is reported as 2.97 µM (active), the IC50 [13] is reported as > 122 µM (inactive) and the IC50 [14] is reported as > 122 µM (inactive). For the same molecule, the IC50 [15] was 21.8 µM (active), the EC50 [16] was 12.8 µM (active) and the AC50 [17] was 13 µM (active). The EC50 [18] was 8.75 µM (active), the IC50 [19] was 45 µM (active) and the IC50 [20] was 147 µM (active).
In the case of `O=C1C(NS(=O)(=O)c2ccc(Br)s2)=C(N2CCCCC2)C(=O)c2ccccc21`, the AC50 [21] is reported as > 70 µM (inactive) and the AC50 [22] is reported as > 70 µM (inactive).
For `COC(=O)C1=C(C)N(Cc2ccc(C(F)(F)F)cc2)C(NCc2cccc(C(F)(F)F)c2)=NC1c1ccccc1C(F)(F)F` (configuration not stated), the IC50 [3] was > 96.6 µM (inactive).
With `COc1cccc(C2=C(NC(=O)c3ccccc3)C(=O)c3ccccc3C2=O)c1` the AC50 [21] was 21 µM (active) and the AC50 [22] was 10.5 µM (active).
